Reference: US9238039B2, “Pyrazolo[1,5-A]pyrimidines for antiviral treatment” (Gilead Sciences, Inc., priority 2010, dated 2016)

Tested on: RSV strain A2
Experiment: RSV antiviral cytoprotection assay in Hep2 cells (96-well and 384-well format, Cell TiterGlo read-out)
Type: cell-based, Respiratory Syncytial Virus (RSV)
Details: for inhibition at 0.5 µM: HEp-2, 0.5 uM; for inhibition at 1 µM: HEp-2, 1 uM; for EC50: Hep2 cells, class symbols
[1] = human respiratory syncytial virus, RSV-induced cytopathic effect in Hep2 cells, calculated from fitted dose response curve, normalized to 0% and 100%
[2] = human respiratory syncytial virus, HEp-2, RSV-induced cytopathic effects

| SMILES | inhibition at 0.5 µM [1] [%] | inhibition at 1 µM [1] [%] | EC50 [2] [nM] | EC50 (RSV-induced cytopathic effects) [nM] | % inh @ 0.5 uM (0.5 uM, RSV-induced cytopathic effect in Hep2 cells, calculated from fitted dose response curve, normalized to 0% and 100%) [%] |
| --- | --- | --- | --- | --- | --- |
| Cc1[nH]c2cc([C@@H]3CCCCN3C(=O)c3ccccc3NC(=O)OC(C)(C)C)nn2c(=O)c1C [Compound 2] | 36 | 46 | 101 to 1000 |  |  |
| CNc1ccccc1C(=O)N1CCCC[C@H]1c1cc2[nH]c(C)c(C)c(=O)n2n1 [Compound 7] | 93 | 98 | 0.1 to 100 |  |  |
| COc1ccc(NS(C)(=O)=O)c(C(=O)N2CCCC[C@H]2c2cc3[nH]c(C)c(C)c(=O)n3n2)c1 [Compound 10] | 94 | 99 | 0.1 to 100 |  |  |
| Cc1[nH]c2cc([C@@H]3CCCCN3C(=O)c3ccccc3NC(=O)C3CC3)nn2c(=O)c1C [Compound 14] | 96 | 98 | 0.1 to 100 |  |  |
| Cc1[nH]c2cc([C@@H]3CCCCN3C(=O)c3ccccc3NS(=O)(=O)N3CCOCC3)nn2c(=O)c1C [Compound 15] | 30 | 42 | 101 to 1000 |  |  |
| CC(=O)Nc1ccc(F)cc1C(=O)N1CCCC[C@H]1c1cc2[nH]c(C)c(C)c(=O)n2n1 [Compound 16] | 89 | 97 | 0.1 to 100 |  |  |
| Cc1c[nH]c2cc([C@@H]3CCCCN3C(=O)c3cc(F)ccc3NS(C)(=O)=O)nn2c1=O [Compound 17] | 75 | 97 | 101 to 1000 |  |  |
| Cc1[nH]c2cc([C@@H]3CCCCN3C(=O)c3cc(F)ccc3NS(C)(=O)=O)nn2c(=O)c1F [Compound 19] | 67 | 84 | 101 to 1000 |  |  |
| Cc1[nH]c2cc([C@@H]3COCCN3C(=O)c3ccccc3NS(C)(=O)=O)nn2c(=O)c1C [Compound 20, N-{2-[3-(5,6-Dimethyl-7-oxo-4,7-dihydro-pyrazolo[1,5-a]pyrimidin-2-yl)-morpholine-4-carbonyl]-phenyl}-methanesulfonamide] | 7 | 53 | 1000 to 10000 |  |  |
| Cc1[nH]c2cc([C@@H]3C[C@H](C)CCN3C(=O)c3cc(F)ccc3NS(C)(=O)=O)nn2c(=O)c1C [Compound 21] | 4 | 10 | 1000 to 10000 |  |  |
| Cc1[nH]c2cc([C@@H]3C[C@@H](C)CCN3C(=O)c3cc(F)ccc3NS(C)(=O)=O)nn2c(=O)c1C [Compound 22] | 95 | 99 | 0.1 to 100 |  |  |
| CCc1c(C)[nH]c2cc([C@@H]3CCCCN3C(=O)c3cc(F)ccc3NS(C)(=O)=O)nn2c1=O [Compound 28] | 73 | 95 | 101 to 1000 |  |  |
| Cc1ccc(NS(C)(=O)=O)c(C(=O)N2CCCC(C)C2c2cc3[nH]c(C)c(C)c(=O)n3n2)c1 (stereo not shown) [Compound 30] | 99 |  |  | 101 to 1000 |  |
| Cc1cccc(NS(C)(=O)=O)c1C(=O)N1CCCC[C@H]1c1cc2[nH]c(C)c(C)c(=O)n2n1 [Compound 32] | 99 |  | 0.1 to 100 |  |  |
| Cc1ccc(NS(C)(=O)=O)c(C(=O)N2Cc3ccccc3C[C@H]2c2cc3[nH]c(C)c(C)c(=O)n3n2)c1 [Compound 33] | 98 |  | 0.1 to 100 |  |  |
| Cc1ccc(NS(C)(=O)=O)c(C(=O)N2Cc3ccccc3C[C@H]2c2cc3nc(C)c(C)c(N(C)C)n3n2)c1 [Compound 34] | 91 |  | 0.1 to 100 |  |  |
| Cc1ccc(NS(C)(=O)=O)c(C(=O)N2Cc3ccccc3C[C@H]2c2cc3nc(C)c(C)cn3n2)c1 [Compound 35] | 96 |  | 0.1 to 100 |  |  |
| Cc1ccc(NS(C)(=O)=O)c(C(=O)N2CCCC(C)C2c2cc3nc(C)c(C)cn3n2)c1 (stereo not shown) [Compound 36] | 90 |  | 0.1 to 100 |  |  |
| Cc1ccc(NS(C)(=O)=O)c(C(=O)N2CCCC(C)C2c2cc3[nH]c(C)c(C)c(=O)n3n2)c1 (stereo not shown) [Compound 37] |  |  |  | 0.1 to 100 | 100 |

| SMILES | inhibition at 0.5 µM [1] [%] | inhibition at 1 µM [1] [%] | EC50 [2] [nM] | EC50 (RSV-induced cytopathic effects) [nM] | % inh @ 0.5 uM (0.5 uM, RSV-induced cytopathic effect in Hep2 cells, calculated from fitted dose response curve, normalized to 0% and 100%) [%] |
| --- | --- | --- | --- | --- | --- |
| Cc1ccc(NS(C)(=O)=O)c(C(=O)N2CCCC[C@H]2c2cc3nc(C)cc(N(C)C)n3n2)c1 [Compound 39] | 100 |  | 0.1 to 100 |  |  |
| Cc1cc(N2CC(O)C2)nc2cc([C@@H]3CCCCN3C(=O)c3cc(Cl)ccc3NS(C)(=O)=O)nn12 [Compound 40] | 100 |  | 0.1 to 100 |  |  |
| Cc1cc(N(C)C)nc2cc([C@@H]3CCCCN3C(=O)c3cc(Cl)ccc3NS(C)(=O)=O)nn12 [Compound 41] | 95 |  | 0.1 to 100 |  |  |
| Cc1cc(N2CCC2)nc2cc([C@@H]3CCCCN3C(=O)c3cc(Cl)ccc3NS(C)(=O)=O)nn12 [Compound 42] | 100 |  | 0.1 to 100 |  |  |
| CS(=O)(=O)Nc1ccc(Cl)cc1C(=O)N1CCCC[C@H]1c1cc2nc(N3CCC3)ccn2n1 [Compound 43] | 100 |  | 0.1 to 100 |  |  |
| CS(=O)(=O)Nc1ccc(Cl)cc1C(=O)N1CCCC[C@H]1c1cc2nc(N3CCC3)cc(N3CCC(O)CC3)n2n1 [Compound 44] | 100 |  | 0.1 to 100 |  |  |
| CS(=O)(=O)Nc1ccc(Cl)cc1C(=O)N1CCCC[C@H]1c1cc2nc(N3CCC3)cc(N3CCNCC3)n2n1 [Compound 45] | 100 |  | 0.1 to 100 |  |  |
| Cc1cc(N2CCCC2)nc2cc([C@@H]3CCCCN3C(=O)c3cc(Cl)ccc3NS(C)(=O)=O)nn12 [Compound 46] | 100 |  | 0.1 to 100 |  |  |
| Cc1cc(N2CC(F)C2)nc2cc([C@@H]3CCCCN3C(=O)c3cc(Cl)ccc3NS(C)(=O)=O)nn12 [Compound 47] | 100 |  | 0.1 to 100 |  |  |
| Cc1cc(N2CC[C@@H](O)C2)nc2cc([C@@H]3CCCCN3C(=O)c3cc(Cl)ccc3NS(C)(=O)=O)nn12 [Compound 48] | 99 |  | 0.1 to 100 |  |  |
| CS(=O)(=O)Nc1ccc(Cl)cc1C(=O)N1CCCC[C@H]1c1cc2nc(N3CC(O)C3)ccn2n1 [Compound 49] | 98 |  | 0.1 to 100 |  |  |
| CS(=O)(=O)Nc1ccc(Cl)cc1C(=O)N1CCCC[C@H]1c1cc2nc(N3CC(O)C3)cc(N3CCNCC3)n2n1 [Compound 50] | 100 |  | 0.1 to 100 |  |  |
| CS(=O)(=O)Nc1ccc(Cl)cc1C(=O)N1CCCC[C@H]1c1cc2nc(N3CC[C@@H](O)C3)ccn2n1 [Compound 51] | 98 |  | 0.1 to 100 |  |  |
| Cc1cc(N2CC(N)C2)nc2cc([C@@H]3CCCCN3C(=O)c3cc(Cl)ccc3NS(C)(=O)=O)nn12 [Compound 52] | 100 |  | 0.1 to 100 |  |  |
| CS(=O)(=O)Nc1ccc(Cl)cc1C(=O)N1CCCC[C@H]1c1cc2nc(N3CC(N)C3)ccn2n1 [Compound 53] | 98 |  | 0.1 to 100 |  |  |
| CN1CCN(c2cc(N3CC(O)C3)nc3cc([C@@H]4CCCCN4C(=O)c4cc(Cl)ccc4NS(C)(=O)=O)nn23)CC1 [Compound 54] | 100 |  | 0.1 to 100 |  |  |
| CN(C)CCN(C)c1cc(N2CC(O)C2)nc2cc([C@@H]3CCCCN3C(=O)c3cc(Cl)ccc3NS(C)(=O)=O)nn12 [Compound 55] | 100 |  | 0.1 to 100 |  |  |
| CS(=O)(=O)Nc1ccc(Cl)cc1C(=O)N1CCCC[C@H]1c1cc2nc(N3CCC3)cc(N3CC(O)C3)n2n1 [Compound 56] | 100 |  | 0.1 to 100 |  |  |
| CS(=O)(=O)Nc1ccc(Cl)cc1C(=O)N1CCCC[C@H]1c1cc2nc(N3CCC3)cc(N3CCC(O)C3)n2n1 (stereo partly shown) [Compound 57] | 100 |  | 0.1 to 100 |  |  |
